Values joined by “and” are separate entries in the source; they are usually repeats but may differ in a detail not shown here. Equal entries are not always repeated. Inconclusive results and toxic doses are left out. No stated cut-off is given here; in the data, active means T/C of 150% or more; inactive means T/C below 125%.
System: L1210 leukemia ip in BDF1 mice, survival T/C
Test: NCI In Vivo Anticancer Drug Screen. Data for tumor model L1210 Leukemia (intraperitoneal) in B6D2F1 (BDF1) mice
Details: endpoint: mean survival time, higher = longer survival
Outline: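 Transplanted-tumor mice were given test agent; controls received vehicle only. Survival readings from the two groups were divided (treated over control).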

[1] = dose: 100.0 mg/kg/injection, schedule: Q01DX009 (ip), vehicle: saline with Tween-80
[2] = dose: 100.0 mg/kg/injection, schedule: Q04DX003 (ip), vehicle: saline with Tween-80
[3] = dose: 200.0 mg/kg/injection, schedule: Q01DX009 (ip), vehicle: saline with Tween-80
[4] = dose: 200.0 mg/kg/injection, schedule: Q04DX003 (ip), vehicle: saline with Tween-80
[5] = dose: 400.0 mg/kg/injection, schedule: Q01DX009 (ip), vehicle: saline with Tween-80
[6] = dose: 400.0 mg/kg/injection, schedule: Q04DX003 (ip), vehicle: saline with Tween-80
[7] = dose: 100.0 mg/kg/injection, schedule: Q01DX001 (ip), vehicle: Klucel (hydroxypropylcellulose) (HPC)
[8] = dose: 100.0 mg/kg/injection, schedule: Q01DX009 (ip), vehicle: Klucel (hydroxypropylcellulose) (HPC)
[9] = dose: 200.0 mg/kg/injection, schedule: Q01DX009 (ip), vehicle: Klucel (hydroxypropylcellulose) (HPC)
[10] = dose: 400.0 mg/kg/injection, schedule: Q01DX009 (ip), vehicle: Klucel (hydroxypropylcellulose) (HPC)

Measured: T/C

COC(OC)c1[nH]c(=S)[nH]c(=O)c1CCCc1ccccc1
inactive: [1] 94 % of control | [2] 100 % of control | [3] 105 % of control | [4] 100 % of control | [5] 86 % of control | [6] 96 % of control

C[N+](C)(C)/N=C\C1CC=CCC1 (stereo not drawn)
inactive: dose: 12.5 mg/kg/injection, schedule: Q01DX009 (ip), vehicle: saline 99 % of control | dose: 25.0 mg/kg/injection, schedule: Q01DX009 (ip), vehicle: saline 96 % of control | dose: 50.0 mg/kg/injection, schedule: Q01DX009 (ip), vehicle: saline 99 % of control and 105 % of control

CCCCCCCCCCCCc1ccccc1
inactive: dose: 50.0 mg/kg/injection, schedule: Q01DX001 (ip), vehicle: saline 91 % of control | dose: 100.0 mg/kg/injection, schedule: Q01DX001 (ip), vehicle: saline 97 % of control | dose: 200.0 mg/kg/injection, schedule: Q01DX001 (ip), vehicle: saline 97 % of control | dose: 400.0 mg/kg/injection, schedule: Q01DX001 (ip), vehicle: saline 101 % of control

O=C(CCCl)OCCCl
inactive: dose: 50.0 mg/kg/injection, schedule: Q01DX009 (ip), vehicle: saline sonified 94 % of control | dose: 100.0 mg/kg/injection, schedule: Q01DX009 (ip), vehicle: saline sonified 96 % of control | dose: 200.0 mg/kg/injection, schedule: Q01DX009 (ip), vehicle: saline sonified 94 % of control

C=C(C)CON=C(c1ccccc1)c1ccccc1
inactive: dose: 100.0 mg/kg/injection, schedule: Q04DX003 (ip), vehicle: saline 92 % of control | dose: 200.0 mg/kg/injection, schedule: Q04DX003 (ip), vehicle: saline 96 % of control | dose: 400.0 mg/kg/injection, schedule: Q04DX003 (ip), vehicle: saline 97 % of control

COc1cc(NC(=O)Nc2cc(Cl)ccc2C)c(OC)cc1Cl
inactive: [7] 97 % of control | [8] 94 % of control and 88 % of control | dose: 100.0 mg/kg/injection, schedule: Q04DX002 (ip), vehicle: Klucel (hydroxypropylcellulose) (HPC) 104 % of control | dose: 100.0 mg/kg/injection, schedule: Q04DX003 (ip), vehicle: Klucel (hydroxypropylcellulose) (HPC) 103 % of control | dose: 200.0 mg/kg/injection, schedule: Q01DX001 (ip), vehicle: Klucel (hydroxypropylcellulose) (HPC) 103 % of control | [9] 87 % of control and 90 % of control | dose: 200.0 mg/kg/injection, schedule: Q04DX002 (ip), vehicle: Klucel (hydroxypropylcellulose) (HPC) 98 % of control | dose: 200.0 mg/kg/injection, schedule: Q04DX003 (ip), vehicle: Klucel (hydroxypropylcellulose) (HPC) 101 % of control | dose: 400.0 mg/kg/injection, schedule: Q01DX001 (ip), vehicle: Klucel (hydroxypropylcellulose) (HPC) 95 % of control | [10] 88 % of control | dose: 400.0 mg/kg/injection, schedule: Q04DX002 (ip), vehicle: Klucel (hydroxypropylcellulose) (HPC) 89 % of control | dose: 400.0 mg/kg/injection, schedule: Q04DX003 (ip), vehicle: Klucel (hydroxypropylcellulose) (HPC) 92 % of control

Cc1cccc(C)c1NC(=O)N(Cc1ccccc1)Cc1ccccc1
inactive: [8] 98 % of control | [9] 112 % of control | [10] 110 % of control

COC(CCCl)c1ccccc1 (stereo not drawn)
inactive: [1] 101 % of control | [2] 100 % of control | [3] 100 % of control | [4] 96 % of control | [6] 91 % of control

CCN1C(N)=NC(N)=NC1c1ccccc1 (stereo not drawn)
inactive: dose: 25.0 mg/kg/injection, schedule: Q01DX001 (ip), vehicle: Klucel (hydroxypropylcellulose) (HPC) 103 % of control | dose: 50.0 mg/kg/injection, schedule: Q01DX001 (ip), vehicle: Klucel (hydroxypropylcellulose) (HPC) 97 % of control | [7] 102 % of control and 103 % of control

C1C2C3OC3C1C1C2C2C3CC(C4OC34)C12 (stereo not drawn)
inactive: [1] 94 % of control | [2] 100 % of control | [3] 94 % of control | [4] 101 % of control | [5] 94 % of control | [6] 97 % of control

[O-][n+]1ccc(CCc2ccccc2)cc1
inactive: dose: 100.0 mg/kg/injection, schedule: Q04DX002 (ip), vehicle: saline with Tween-80 101 % of control | dose: 200.0 mg/kg/injection, schedule: Q04DX002 (ip), vehicle: saline with Tween-80 101 % of control

CCCCC(CCCC)C(=O)O
inactive: dose: 100.0 mg/kg/injection, schedule: Q01DX001 (ip), vehicle: carboxymethylcellulose (CMC) 111 % of control | dose: 200.0 mg/kg/injection, schedule: Q01DX001 (ip), vehicle: carboxymethylcellulose (CMC) 92 % of control | dose: 400.0 mg/kg/injection, schedule: Q01DX001 (ip), vehicle: carboxymethylcellulose (CMC) 101 % of control
